Some results are limits rather than exact numbers.

The term IC50 denotes the midpoint of a concentration-inhibition curve. Higher therefore signals lower potency.

For one experiment, the target named is EGFR (human) (UniProt P00533). The settings on record: hcc827.
Experiment [1] addresses EGFR (human), P00533 [WT].
Experiment [2] addresses EGFR (human), P00533 [Inhibition of EGFR(L858RT/790M) Kinase Activity].

EGFR (human), P00533 [Inhibition of EGFR(L858RT/790M) Kinase Activity], sequence (P00533 whole entry, looked up, change not shown): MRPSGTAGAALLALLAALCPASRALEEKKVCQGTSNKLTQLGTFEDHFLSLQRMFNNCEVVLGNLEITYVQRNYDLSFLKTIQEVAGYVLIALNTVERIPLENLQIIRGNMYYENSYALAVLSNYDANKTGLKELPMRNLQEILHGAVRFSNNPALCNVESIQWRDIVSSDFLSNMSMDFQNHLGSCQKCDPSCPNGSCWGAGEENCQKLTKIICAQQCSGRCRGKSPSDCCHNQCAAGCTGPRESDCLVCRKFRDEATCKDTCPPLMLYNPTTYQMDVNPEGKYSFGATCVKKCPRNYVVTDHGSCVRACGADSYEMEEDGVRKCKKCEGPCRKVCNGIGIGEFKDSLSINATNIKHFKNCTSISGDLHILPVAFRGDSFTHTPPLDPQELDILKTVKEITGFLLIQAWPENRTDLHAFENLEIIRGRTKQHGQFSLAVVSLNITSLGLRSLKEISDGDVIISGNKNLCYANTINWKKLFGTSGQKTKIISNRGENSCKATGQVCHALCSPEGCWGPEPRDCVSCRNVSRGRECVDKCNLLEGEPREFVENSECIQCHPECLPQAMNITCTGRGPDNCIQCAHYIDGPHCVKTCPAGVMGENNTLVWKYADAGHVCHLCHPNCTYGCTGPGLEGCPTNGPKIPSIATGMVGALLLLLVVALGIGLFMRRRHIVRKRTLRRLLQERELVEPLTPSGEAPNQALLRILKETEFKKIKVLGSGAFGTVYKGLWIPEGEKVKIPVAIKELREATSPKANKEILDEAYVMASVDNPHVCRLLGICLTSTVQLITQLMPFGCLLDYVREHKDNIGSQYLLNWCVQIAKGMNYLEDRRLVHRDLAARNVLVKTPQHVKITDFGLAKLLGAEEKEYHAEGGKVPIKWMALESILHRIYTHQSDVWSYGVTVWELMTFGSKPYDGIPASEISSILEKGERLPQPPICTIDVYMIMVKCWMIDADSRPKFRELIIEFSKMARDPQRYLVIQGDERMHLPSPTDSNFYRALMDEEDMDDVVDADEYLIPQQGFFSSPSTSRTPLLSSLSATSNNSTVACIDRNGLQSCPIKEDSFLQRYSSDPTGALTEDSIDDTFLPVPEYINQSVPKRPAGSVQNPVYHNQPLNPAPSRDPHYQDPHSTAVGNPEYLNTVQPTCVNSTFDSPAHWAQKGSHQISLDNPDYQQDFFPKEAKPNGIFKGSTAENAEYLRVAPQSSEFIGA
EGFR (human), sequence (P00533 whole entry, looked up): as the sequence (P00533 whole entry, looked up, change not shown) above
EGFR (human), P00533 [WT], sequence (P00533 whole entry, looked up): as the sequence (P00533 whole entry, looked up, change not shown) above

Consider `CN(C)C/C=C/C(=O)N1CCc2c(sc3ncnc(N[C@H](COCc4ccccc4)c4ccccc4)c23)C1`, for which the IC50 on EGFR (human) was 1 to 99 nM; in experiment [1], under 59 nM; in experiment [2], 500 to 2500 nM.

`C=CC(=O)N1CCc2c(sc3ncnc(N[C@H](COCc4ccc(C(F)(F)F)cc4)c4ccccc4)c23)C1`: the IC50 is 100 to 300 nM against EGFR (human), under 59 nM in experiment [1] and 10 to 499 nM in experiment [2].

As to `C=CC(=O)N1CCc2c(sc3ncnc(N[C@H](CO)Cc4ccccc4)c23)C1`, the IC50 is 301 to 999 nM against EGFR (human), under 59 nM in experiment [1] and 500 to 2500 nM in experiment [2].

For `CNC/C=C/C(=O)N1CCc2c(sc3ncnc(N[C@H](C)c4ccccc4)c23)C1`, the half-maximal inhibitory concentration (IC50) is 1 to 99 nM against EGFR (human), under 59 nM in experiment [1] and 500 to 2500 nM in experiment [2].

Regarding `COc1cccc(COC[C@@H](Nc2ncnc3sc4c(c23)CCN(C(=O)/C=C/CN(C)C)C4)c2ccccc2)c1`, the figures for the IC50 (at EGFR (human); in experiment [1]; in experiment [2]) were 1 to 99 nM, under 59 nM and 500 to 2500 nM, respectively.

For the molecule `CC#CC(=O)Nc1cccc(-c2c(-c3ccccc3)oc3ncnc(N[C@H](CO)c4ccccc4)c23)c1`, the IC50 against EGFR (human) is 1 to 99 nM; in experiment [1], under 59 nM; in experiment [2], 500 to 2500 nM.

As for `C[C@@H](Nc1ncnc2sc3c(c12)CCN(C(=O)/C=C/CN(CCO)CCO)C3)c1ccccc1`, the figures for the IC50 (against EGFR (human); in experiment [1]; in experiment [2]) were 1 to 99 nM, under 59 nM and 500 to 2500 nM, respectively.

Values taken from the Kinase Knowledgebase extract (Sharma et al. 2016).
